Results: ChEMBL document CHEMBL1132765, “Synthesis and antibacterial activity of new carbapenems containing isoxazole moiety” (2000)
≈ marks a conversion by molar mass, not a printed value.

Key:
Enterobacter cloacae = assay: In vitro antibacterial activity against Enterobacter cloacae 1321E; format: functional
Escherichia coli [1] = assay: In vitro antibacterial activity against Escherichia coli 078; format: functional
Escherichia coli [2] = assay: In vitro antibacterial activity against Escherichia coli 1507E; format: functional
Klebsiella aerogenes = assay: In vitro antibacterial activity against Klebsiella aerogenes 1522E; format: functional
Pseudomonas aeruginosa [3] = assay: In vitro antibacterial activity against Pseudomonas aeruginosa 1592E; format: functional
Pseudomonas aeruginosa [4] = assay: In vitro antibacterial activity against Pseudomonas aeruginosa 1771M; format: functional
Pseudomonas aeruginosa [5] = assay: In vitro antibacterial activity against Pseudomonas aeruginosa 9027; format: functional
Salmonella typhimurium = assay: In vitro antibacterial activity against Salmonella Typhimurium; format: functional, Salmonella enterica subsp. enterica serovar Typhimurium
Staphylococcus aureus [6] = assay: In vitro antibacterial activity against Staphylococcus aureus 285; format: functional
Staphylococcus aureus [7] = assay: In vitro antibacterial activity against Staphylococcus aureus 503; format: functional
Staphylococcus aureus [8] = assay: In vitro antibacterial activity against Staphylococcus aureus SG511; format: functional
Streptococcus pyogenes = assay: In vitro antibacterial activity against Streptococcus pyogenes 308A; format: functional
[9] = biological target: T1, Dipeptidase 1 (Sus scrofa) (UniProt P22412); assay: Relative t1/2 hydrolysis to meropenem by partially purified porcine renal DHP-1; format: functional
T1 sequence (whole entry): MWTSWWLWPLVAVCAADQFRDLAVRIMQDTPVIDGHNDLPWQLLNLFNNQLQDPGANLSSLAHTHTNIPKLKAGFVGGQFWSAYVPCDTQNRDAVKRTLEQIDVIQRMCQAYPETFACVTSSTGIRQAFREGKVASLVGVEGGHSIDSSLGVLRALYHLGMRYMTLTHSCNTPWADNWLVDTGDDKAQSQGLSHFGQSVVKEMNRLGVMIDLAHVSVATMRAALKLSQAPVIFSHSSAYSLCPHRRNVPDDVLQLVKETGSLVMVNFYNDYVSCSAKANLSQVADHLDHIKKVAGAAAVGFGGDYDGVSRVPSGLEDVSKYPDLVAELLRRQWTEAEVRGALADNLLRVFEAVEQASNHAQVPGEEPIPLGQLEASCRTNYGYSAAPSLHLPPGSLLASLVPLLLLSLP

[10] = Enterobacter cloacae, read-out: MIC
[11] = Escherichia coli, read-out: MIC
[12] = Klebsiella aerogenes, read-out: MIC
[13] = Pseudomonas aeruginosa, read-out: MIC
[14] = Salmonella enterica, read-out: MIC
[15] = Staphylococcus aureus, read-out: MIC
[16] = Streptococcus pyogenes, read-out: MIC

Structure (SMILES) | Relative t1/2 [9] | MIC (Enterobacter cloacae; [10]) [µg/mL] | MIC (Escherichia coli [1]; [11]) [µg/mL] | MIC (Escherichia coli [2]; [11]) [µg/mL] | MIC (Klebsiella aerogenes; [12]) [µg/mL] | MIC (Pseudomonas aeruginosa [3]; [13]) [µg/mL] | MIC (Pseudomonas aeruginosa [4]; [13]) [µg/mL] | MIC (Pseudomonas aeruginosa [5]; [13]) [µg/mL] | MIC (Salmonella typhimurium; [14]) [µg/mL] | MIC (Staphylococcus aureus [6]; [15]) [µg/mL] | MIC (Staphylococcus aureus [7]; [15]) [µg/mL] | MIC (Staphylococcus aureus [8]; [15]) [µg/mL] | MIC (Streptococcus pyogenes; [16]) [µg/mL] | other results
C[C@@H](O)[C@H]1C(=O)N2C(C(=O)O)=C(S[C@@H]3CN[C@H](C4CC(CO)=NO4)C3)[C@H](C)[C@H]12 (stereo in doubt; form 2) [listing 1 of 2 here] |  |  |  |  |  |  |  |  |  |  |  |  |  | MIC (Enterobacter cloacae): 0.025 µg/mL (≈ 0.0608 µM); MIC (Escherichia coli [1]): 0.025 µg/mL (≈ 0.0608 µM); MIC (Escherichia coli [2]): 0.025 µg/mL (≈ 0.0608 µM); MIC (Klebsiella aerogenes): 0.049 µg/mL (≈ 0.119 µM); MIC (Pseudomonas aeruginosa [3]): 0.391 µg/mL (≈ 0.95 µM); MIC (Pseudomonas aeruginosa [4]): 0.195 µg/mL (≈ 0.474 µM); MIC (Pseudomonas aeruginosa [5]): 0.391 µg/mL (≈ 0.95 µM); MIC (Salmonella typhimurium): 0.049 µg/mL (≈ 0.119 µM); MIC (Staphylococcus aureus [6]): 0.098 µg/mL (≈ 0.238 µM); MIC (Staphylococcus aureus [7]): 0.049 µg/mL (≈ 0.119 µM); MIC (Staphylococcus aureus [8]): 0.098 µg/mL (≈ 0.238 µM); MIC (Streptococcus pyogenes): 0.013 µg/mL (≈ 0.0316 µM)
CCOC(=O)C1=NOC([C@@H]2C[C@H](SC3=C(C(=O)O)N4C(=O)[C@H]([C@@H](C)O)[C@H]4[C@H]3C)CN2)C1 (some centres undefined) | 0.94 | 0.025 (≈ 0.0551 µM) | 0.013 (≈ 0.0287 µM) | 0.013 (≈ 0.0287 µM) | 0.049 (≈ 0.108 µM) | 0.781 (≈ 1.72 µM) | 0.391 (≈ 0.862 µM) | 0.781 (≈ 1.72 µM) | 0.049 (≈ 0.108 µM) | 0.391 (≈ 0.862 µM) | 0.098 (≈ 0.216 µM) | 0.195 (≈ 0.43 µM) | 0.025 (≈ 0.0551 µM) | 
C[C@@H](O)[C@H]1C(=O)N2C(C(=O)O)=C(S[C@@H]3CN[C@H](C4CCN(C)O4)C3)[C@H](C)[C@H]12 (some centres undefined) | 1.27 | 0.025 (≈ 0.0629 µM) | 0.098 (≈ 0.247 µM) | 0.049 (≈ 0.123 µM) | 0.098 (≈ 0.247 µM) | 0.391 (≈ 0.984 µM) | 0.195 (≈ 0.491 µM) | 0.391 (≈ 0.984 µM) | 0.098 (≈ 0.247 µM) | 0.098 (≈ 0.247 µM) | 0.049 (≈ 0.123 µM) | 0.098 (≈ 0.247 µM) | 0.007 (≈ 0.0176 µM) | 
C[C@@H](O)[C@H]1C(=O)N2C(C(=O)O)=C(S[C@@H]3CN[C@H](C4CC[N+](C)(C)O4)C3)[C@H](C)[C@H]12.[Cl-] (some centres undefined) | 1.5 | 0.098 | 0.195 | 0.098 | 0.195 | 0.391 | 0.195 | 0.391 | 0.195 | 0.195 | 0.049 | 0.098 | 0.013 | 
C[C@@H](O)[C@H]1C(=O)N2C(C(=O)O)=C(S[C@@H]3CN[C@H](C4CC[N+](C)(CC(N)=O)O4)C3)[C@H](C)[C@H]12.[Cl-] (some centres undefined) | 1.66 | 0.049 | 0.098 | 0.049 | 0.195 | 0.391 | 0.195 | 0.195 | 0.195 | 0.098 | 0.025 | 0.049 | 0.007 | 
C[C@@H](O)[C@H]1C(=O)N2C(C(=O)O)=C(S[C@@H]3CN[C@H](C(=O)N(C)C)C3)[C@H](C)[C@H]12 [MEROPENEM] | 1 | 0.025 (≈ 0.0652 µM) | 0.025 (≈ 0.0652 µM) | 0.025 (≈ 0.0652 µM) | 0.049 (≈ 0.128 µM) | 0.195 (≈ 0.509 µM) | 0.049 (≈ 0.128 µM) | 0.195 (≈ 0.509 µM) | 0.049 (≈ 0.128 µM) | 0.195 (≈ 0.509 µM) | 0.098 (≈ 0.256 µM) | 0.195 (≈ 0.509 µM) | 0.013 (≈ 0.0339 µM) | 
C[C@@H](O)[C@H]1C(=O)N2C(C(=O)O)=C(S[C@@H]3CN[C@H](c4cc(CO)on4)C3)[C@H](C)[C@H]12 | 0.8 | 0.025 (≈ 0.0611 µM) | 0.025 (≈ 0.0611 µM) | 0.025 (≈ 0.0611 µM) | 0.049 (≈ 0.12 µM) | 1.56 (≈ 3.82 µM) | 0.391 (≈ 0.955 µM) |  | 0.049 (≈ 0.12 µM) | 0.098 (≈ 0.239 µM) | 0.049 (≈ 0.12 µM) | 0.098 (≈ 0.239 µM) | 0.013 (≈ 0.0317 µM) | MIC (Pseudomonas aeruginosa [5]): 1.56 µg/mL (≈ 3.82 µM)

Continued, in another order:

Relative t1/2 [9] | MIC (Enterobacter cloacae; [10]) [µg/mL] | MIC (Escherichia coli [1]; [11]) [µg/mL] | MIC (Escherichia coli [2]; [11]) [µg/mL] | MIC (Klebsiella aerogenes; [12]) [µg/mL] | MIC (Pseudomonas aeruginosa [3]; [13]) [µg/mL] | MIC (Pseudomonas aeruginosa [4]; [13]) [µg/mL] | MIC (Pseudomonas aeruginosa [5]; [13]) [µg/mL] | MIC (Salmonella typhimurium; [14]) [µg/mL] | MIC (Staphylococcus aureus [6]; [15]) [µg/mL] | MIC (Staphylococcus aureus [7]; [15]) [µg/mL] | MIC (Staphylococcus aureus [8]; [15]) [µg/mL] | MIC (Streptococcus pyogenes; [16]) [µg/mL] | Structure (SMILES) | other results
1.09 |  |  |  |  |  |  |  |  |  |  |  |  | C[C@@H](O)[C@H]1C(=O)N2C(C(=O)O)=C(S[C@@H]3CN[C@H](C4CC(CO)=NO4)C3)[C@H](C)[C@H]12 (stereo in doubt; form 1) [listing 1 of 2 here] | 
 | 0.049 (≈ 0.119 µM) | 0.049 (≈ 0.119 µM) | 0.049 (≈ 0.119 µM) | 0.098 (≈ 0.238 µM) | 0.391 (≈ 0.95 µM) | 0.098 (≈ 0.238 µM) | 0.391 (≈ 0.95 µM) | 0.098 (≈ 0.238 µM) | 0.098 (≈ 0.238 µM) | 0.049 (≈ 0.119 µM) | 0.098 (≈ 0.238 µM) | 0.013 (≈ 0.0316 µM) | C[C@@H](O)[C@H]1C(=O)N2C(C(=O)O)=C(S[C@@H]3CN[C@H](C4CC(CO)=NO4)C3)[C@H](C)[C@H]12 (stereo in doubt; form 1) [listing 2 of 2 here] | 
0.78 |  |  |  |  |  |  |  |  |  |  |  |  | C[C@@H](O)[C@H]1C(=O)N2C(C(=O)O)=C(S[C@@H]3CN[C@H](C4CC(CO)=NO4)C3)[C@H](C)[C@H]12 (stereo in doubt; form 2) [listing 2 of 2 here] | 
